In patent publication US9446039B2, “Aminoheteroaryl compounds as MTH1 inhibitors” (CEMM—FORSCHUNGSZENTRUM FÜR MOLEKULARE MEDIZIN GMBH, priority 2012, dated 2016):

Tests used:
Assay type in all cases: binding
[1] = target: SW480 colon carcinoma cells lysate proteins (Homo sapiens, UniProt P62942); settings: PreyGene FKBP1A; SW480 cells
[2] = target: SW480 colon carcinoma cells lysate proteins (Homo sapiens, UniProt Q01518); settings: PreyGene CAP1
[3] = target: T1, SW480 colon carcinoma cells lysate proteins (Homo sapiens, UniProt P22314); settings: PreyGene UBA1
T1 sequence (P22314 1-1058): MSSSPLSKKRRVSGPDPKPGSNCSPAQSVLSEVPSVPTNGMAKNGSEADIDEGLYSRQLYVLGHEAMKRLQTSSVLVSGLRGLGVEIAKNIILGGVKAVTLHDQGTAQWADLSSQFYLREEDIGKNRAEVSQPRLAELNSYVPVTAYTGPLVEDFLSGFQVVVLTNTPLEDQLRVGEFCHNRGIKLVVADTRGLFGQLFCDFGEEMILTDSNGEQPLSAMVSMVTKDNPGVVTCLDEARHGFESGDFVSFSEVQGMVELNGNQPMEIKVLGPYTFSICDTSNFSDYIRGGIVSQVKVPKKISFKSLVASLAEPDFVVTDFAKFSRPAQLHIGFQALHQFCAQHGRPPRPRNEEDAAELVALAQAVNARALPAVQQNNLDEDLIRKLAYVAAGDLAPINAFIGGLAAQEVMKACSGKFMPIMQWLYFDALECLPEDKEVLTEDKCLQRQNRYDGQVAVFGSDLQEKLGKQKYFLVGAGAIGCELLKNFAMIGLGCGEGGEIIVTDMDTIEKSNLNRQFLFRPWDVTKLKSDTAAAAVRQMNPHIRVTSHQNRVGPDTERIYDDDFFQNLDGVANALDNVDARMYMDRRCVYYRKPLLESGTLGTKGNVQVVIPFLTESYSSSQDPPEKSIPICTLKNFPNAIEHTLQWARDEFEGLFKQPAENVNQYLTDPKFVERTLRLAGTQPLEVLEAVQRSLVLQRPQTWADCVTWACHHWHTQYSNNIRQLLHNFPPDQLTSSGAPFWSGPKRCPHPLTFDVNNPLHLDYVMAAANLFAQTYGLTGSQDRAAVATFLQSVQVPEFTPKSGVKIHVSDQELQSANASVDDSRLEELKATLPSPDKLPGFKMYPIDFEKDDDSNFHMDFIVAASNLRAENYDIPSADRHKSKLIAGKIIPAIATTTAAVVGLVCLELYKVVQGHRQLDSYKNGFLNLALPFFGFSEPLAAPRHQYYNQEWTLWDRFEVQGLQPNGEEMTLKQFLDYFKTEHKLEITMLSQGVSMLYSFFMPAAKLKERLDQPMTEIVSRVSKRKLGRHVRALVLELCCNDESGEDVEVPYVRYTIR

[4] = target: T2, SW480 colon carcinoma cells lysate proteins (Homo sapiens, UniProt P06454); settings: PreyGene PTMA
T2 sequence (P06454 1-111): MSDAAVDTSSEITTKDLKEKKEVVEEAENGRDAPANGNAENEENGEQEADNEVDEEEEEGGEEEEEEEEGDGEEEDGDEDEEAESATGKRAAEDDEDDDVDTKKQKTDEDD

[5] = target: SW480 colon carcinoma cells lysate proteins (Homo sapiens, UniProt P30040); settings: PreyGene ERP29
[6] = target: T3, SW480 colon carcinoma cells lysate proteins (Homo sapiens, UniProt Q9UHD8); settings: PreyGene 09-Sep
T3 sequence (Q9UHD8 1-586): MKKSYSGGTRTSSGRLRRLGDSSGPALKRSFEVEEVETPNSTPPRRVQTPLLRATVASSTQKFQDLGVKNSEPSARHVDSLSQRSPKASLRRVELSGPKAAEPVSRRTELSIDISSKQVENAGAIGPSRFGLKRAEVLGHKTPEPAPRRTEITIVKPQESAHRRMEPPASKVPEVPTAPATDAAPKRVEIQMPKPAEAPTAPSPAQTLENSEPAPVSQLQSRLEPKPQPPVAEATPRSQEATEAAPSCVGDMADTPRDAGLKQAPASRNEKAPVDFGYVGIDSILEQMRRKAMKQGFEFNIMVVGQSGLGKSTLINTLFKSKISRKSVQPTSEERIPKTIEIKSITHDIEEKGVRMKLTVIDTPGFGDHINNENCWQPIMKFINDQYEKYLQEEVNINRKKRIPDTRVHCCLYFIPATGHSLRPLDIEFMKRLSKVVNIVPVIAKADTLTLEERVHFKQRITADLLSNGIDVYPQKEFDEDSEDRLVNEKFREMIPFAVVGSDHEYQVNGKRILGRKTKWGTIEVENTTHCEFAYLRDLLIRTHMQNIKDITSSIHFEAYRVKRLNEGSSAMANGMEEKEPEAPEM

[7] = target: T4, SW480 colon carcinoma cells lysate proteins (Homo sapiens, UniProt P37837); settings: PreyGene TALDO1
T4 sequence (P37837 1-337): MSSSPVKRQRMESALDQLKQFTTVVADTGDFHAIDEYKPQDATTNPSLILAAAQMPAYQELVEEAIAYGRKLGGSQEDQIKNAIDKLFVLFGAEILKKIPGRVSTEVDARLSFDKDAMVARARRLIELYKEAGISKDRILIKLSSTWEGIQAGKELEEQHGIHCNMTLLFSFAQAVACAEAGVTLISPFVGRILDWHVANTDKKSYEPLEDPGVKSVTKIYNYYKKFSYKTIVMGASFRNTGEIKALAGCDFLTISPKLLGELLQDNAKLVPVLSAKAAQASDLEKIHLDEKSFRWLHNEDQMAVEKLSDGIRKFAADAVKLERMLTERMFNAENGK

Chain of SW480 colon carcinoma cells lysate proteins (Homo sapiens, UniProt P62942) (P62942 whole entry): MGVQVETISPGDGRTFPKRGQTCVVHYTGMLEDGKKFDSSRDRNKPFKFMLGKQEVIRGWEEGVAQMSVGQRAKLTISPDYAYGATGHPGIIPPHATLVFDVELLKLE
Chain of SW480 colon carcinoma cells lysate proteins (Homo sapiens, UniProt Q01518) (Q01518 whole entry): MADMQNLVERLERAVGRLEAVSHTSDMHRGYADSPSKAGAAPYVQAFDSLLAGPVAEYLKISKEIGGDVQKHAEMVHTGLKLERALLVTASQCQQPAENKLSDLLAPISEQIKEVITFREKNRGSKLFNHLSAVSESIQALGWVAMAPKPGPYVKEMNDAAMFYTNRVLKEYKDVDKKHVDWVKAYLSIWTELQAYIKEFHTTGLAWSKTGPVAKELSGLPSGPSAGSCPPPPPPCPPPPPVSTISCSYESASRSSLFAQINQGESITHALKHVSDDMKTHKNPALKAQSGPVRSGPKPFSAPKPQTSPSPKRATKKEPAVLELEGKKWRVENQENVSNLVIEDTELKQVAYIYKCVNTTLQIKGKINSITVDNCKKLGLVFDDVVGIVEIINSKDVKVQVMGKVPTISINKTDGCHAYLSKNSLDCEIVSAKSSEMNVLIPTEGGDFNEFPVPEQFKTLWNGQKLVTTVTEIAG

C[C@H](Oc1cc(-c2cnn(C3CCNCC3)c2)cnc1N)c1c(Cl)ccc(F)c1Cl [(5)-crizotinib]
AvgP [1]: 0
SC.Exp. 1-1 [1]: 1
SC.Exp. 1-2 [1]: 1
SC.Exp. 2-1 [1]: 1
SC.Exp. 2-2 [1]: 0
SC.Exp. Sum [1]: 3
AvgP [2]: 0.3081
SC.Exp. 1-1 [2]: 3
SC.Exp. 1-2 [2]: 2
SC.Exp. 2-1 [2]: 0
SC.Exp. 2-2 [2]: 0
Sum (SC.Exp.) [2]: 5
AvgP [3]: 0.4997
SC.Exp. 1-1 [3]: 15
SC.Exp. 1-2 [3]: 15
SC.Exp. 2-1 [3]: 0
SC.Exp. 2-2 [3]: 0
Sum (SC.Exp.) [3]: 30
AvgP [4]: 0.3707
SC.Exp. 1-1 [4]: 2
SC.Exp. 1-2 [4]: 2
SC.Exp. 2-1 [4]: 0
SC.Exp. 2-2 [4]: 0
Sum (SC.Exp.) [4]: 4
AvgP [5]: 0.1841
SC.Exp. 1-1 [5]: 2
SC.Exp. 1-2 [5]: 0
SC.Exp. 2-1 [5]: 0
SC.Exp. 2-2 [5]: 0
Sum (SC.Exp.) [5]: 2
AvgP [6]: 0.323
SC.Exp. 1-1 [6]: 1
SC.Exp. 1-2 [6]: 2
SC.Exp. 2-1 [6]: 0
SC.Exp. 2-2 [6]: 2
Sum (SC.Exp.) [6]: 5
AvgP [7]: 0.3739
SC.Exp. 1-1 [7]: 2
SC.Exp. 1-2 [7]: 2
SC.Exp. 2-1 [7]: 0
SC.Exp. 2-2 [7]: 0
Sum (SC.Exp.) [7]: 4
